Calls of active or inactive are those of the source.
Key:
[1] = molecular target: Protein-tyrosine kinase 2-beta (Homo sapiens, UniProt Q14289);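 also: potency of inhibitors of PYK2 kinase phosphorylation of poly-GT substrate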
Mu-type opioid receptor = Mu-type opioid receptor (Homo sapiens, UniProt P35372); type: functional, cell-based;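 also: U2OS cells with beta-arrestin recruitment to OPRM1 by beta-gal complementation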
[2] = molecular target: 5-hydroxytryptamine receptor 2A (Mus musculus, UniProt P35363); type: functional, cell-based;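 also: CHO-K1 cells with tagged receptor and beta-arrestin; agonist potency measured as compound-induced activation of the receptor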
Sequence of 5-hydroxytryptamine receptor 2A (P35363 whole entry): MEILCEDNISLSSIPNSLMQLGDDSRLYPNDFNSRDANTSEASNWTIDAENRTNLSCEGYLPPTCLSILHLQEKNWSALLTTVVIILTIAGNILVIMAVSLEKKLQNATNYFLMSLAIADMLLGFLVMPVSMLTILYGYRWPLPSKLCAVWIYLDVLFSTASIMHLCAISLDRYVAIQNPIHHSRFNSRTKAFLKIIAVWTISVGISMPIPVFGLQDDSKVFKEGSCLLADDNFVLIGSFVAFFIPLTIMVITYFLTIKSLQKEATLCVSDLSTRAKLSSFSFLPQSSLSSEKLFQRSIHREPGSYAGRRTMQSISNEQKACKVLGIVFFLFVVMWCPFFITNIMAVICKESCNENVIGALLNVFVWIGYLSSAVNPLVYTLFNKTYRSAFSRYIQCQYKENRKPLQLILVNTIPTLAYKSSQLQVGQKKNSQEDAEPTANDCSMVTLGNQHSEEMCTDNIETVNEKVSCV

cells [3] = type: functional, cell-based
[4] = molecular target: T1, Trace amine-associated receptor 1 (Homo sapiens, UniProt Q96RJ0); assay: Fluorescence-based cell-based high throughput dose response assay to identify agonists of the human trace amine associated receptor 1 (TAAR1).; type: functional
T1 sequence (Q96RJ0 whole entry): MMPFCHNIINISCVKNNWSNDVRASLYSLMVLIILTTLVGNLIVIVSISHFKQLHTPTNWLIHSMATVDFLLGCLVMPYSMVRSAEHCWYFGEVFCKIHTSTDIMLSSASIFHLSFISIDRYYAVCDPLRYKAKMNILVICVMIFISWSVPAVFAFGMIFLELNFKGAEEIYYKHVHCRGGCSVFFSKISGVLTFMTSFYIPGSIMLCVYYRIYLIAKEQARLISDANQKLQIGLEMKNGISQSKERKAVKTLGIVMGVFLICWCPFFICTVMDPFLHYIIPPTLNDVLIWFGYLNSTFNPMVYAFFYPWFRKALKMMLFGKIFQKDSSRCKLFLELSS

cells [5] = type: functional, cell-based; remark: listed apart in the source
[6] = molecular target: T1, Trace amine-associated receptor 1; assay: Counterscreen for agonists of the human trace amine associated receptor 1 (hTAAR1): Fluorescence-based cell-based high throughput dose response assay to identify hTAAR1 agonist that also desensitize TAAR1 receptor response.; type: functional
[7] = molecular target: T2, Ubiquitin carboxyl-terminal hydrolase BAP1 (Homo sapiens, UniProt Q92560); assay: inhibition of BAP1 ubiquitin hydrolase activity – biochemical, dose response (AID 714); type: functional
T2 sequence (Q92560 whole entry): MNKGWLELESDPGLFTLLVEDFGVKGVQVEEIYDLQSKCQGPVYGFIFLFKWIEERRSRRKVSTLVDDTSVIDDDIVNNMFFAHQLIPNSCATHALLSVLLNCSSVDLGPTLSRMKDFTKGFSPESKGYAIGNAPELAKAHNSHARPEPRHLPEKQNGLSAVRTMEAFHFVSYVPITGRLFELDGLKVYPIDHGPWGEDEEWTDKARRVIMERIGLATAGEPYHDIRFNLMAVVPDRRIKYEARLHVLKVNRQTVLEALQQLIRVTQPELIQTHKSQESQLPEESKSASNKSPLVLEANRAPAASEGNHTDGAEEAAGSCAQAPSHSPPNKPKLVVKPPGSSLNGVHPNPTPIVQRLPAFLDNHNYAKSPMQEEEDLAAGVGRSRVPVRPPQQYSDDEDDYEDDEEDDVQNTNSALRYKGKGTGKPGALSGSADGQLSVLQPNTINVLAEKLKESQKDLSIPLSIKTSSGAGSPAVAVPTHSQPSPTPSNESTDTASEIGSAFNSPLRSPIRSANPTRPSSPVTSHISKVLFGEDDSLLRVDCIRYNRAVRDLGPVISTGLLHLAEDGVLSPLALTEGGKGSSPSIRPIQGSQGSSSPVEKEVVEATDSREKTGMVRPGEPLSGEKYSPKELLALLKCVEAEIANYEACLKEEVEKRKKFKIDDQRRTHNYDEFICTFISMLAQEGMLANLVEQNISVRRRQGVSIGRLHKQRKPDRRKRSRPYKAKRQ

[8] = Dd2 parasite growth inhibition in erythrocytes – SYBR Green, dry powder samples, set 9, dose response (AID 1159568); type: functional, cell-based
[9] = blockers of HIV-1 ZM109 envelope-driven cell-cell fusion – HeLa effector, CEM target cells, luciferase, cherry-pick, dose response (AID 652058); type: functional, cell-based;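 also: luciferase signal from HIV-1 Env mediated cell-cell fusion of effector and target cells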
[10] = off-target signal loss in HeLa-CEM21 co-culture – HeLa F-luc CTL cells, cherry-picked, counter-screen for HIV-1 Env fusion inhibitor project, dose response (AID 652040); type: functional, cell-based;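 also: potency for signal decrease marking cytotoxic or nonspecific inhibition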
[11] = blockers of HIV-1 envelope-mediated cell-cell fusion – cherry-pick, dose response (AID 652057); type: functional, cell-based
[12] = HIV-1 AD8 envelope cell-cell fusion blockers – cherry-pick, dose response (AID 652062); type: functional, cell-based;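 also: luciferase signal from cell-cell fusion driven by HIV-1 clade B AD8 Env; potency is for inhibitors of fusion seen as a drop in luminescence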
Cytochrome P450 2C19 = Cytochrome P450 2C19 (Homo sapiens, UniProt P33261); assay: Cytochrome panel assay with activity outcomes. Panel member name: p450-cyp2c19 Compounds with AC50 equal or less than 10 uM are considered active; type: functional
Estrogen receptor beta [13] = molecular target: T3, Estrogen receptor beta (Homo sapiens, UniProt Q92731); assay: blockers of SRC-3 recruitment to ERβ – biochemical, ELISA, streptavidin-HRP readout, orthogonal assay, confirmation (AID 1060)
T3 sequence (Q92731 whole entry): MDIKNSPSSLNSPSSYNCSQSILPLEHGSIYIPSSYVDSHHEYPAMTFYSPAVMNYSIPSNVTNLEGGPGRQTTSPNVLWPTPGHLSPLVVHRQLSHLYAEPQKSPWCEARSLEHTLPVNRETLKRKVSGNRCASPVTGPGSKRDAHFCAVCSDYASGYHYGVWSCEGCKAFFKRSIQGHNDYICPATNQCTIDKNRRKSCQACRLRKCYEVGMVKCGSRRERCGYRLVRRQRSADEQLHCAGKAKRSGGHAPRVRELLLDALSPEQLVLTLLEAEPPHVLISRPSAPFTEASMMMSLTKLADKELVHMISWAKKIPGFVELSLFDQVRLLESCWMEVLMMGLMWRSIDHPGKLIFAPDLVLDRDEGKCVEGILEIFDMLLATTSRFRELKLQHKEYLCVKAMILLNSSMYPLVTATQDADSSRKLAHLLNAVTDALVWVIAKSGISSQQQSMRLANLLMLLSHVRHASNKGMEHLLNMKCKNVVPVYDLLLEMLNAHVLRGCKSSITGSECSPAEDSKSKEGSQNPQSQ

Estrogen receptor beta [14] = molecular target: T3, Estrogen receptor beta
Cytochrome P450 2C9 = Cytochrome P450 2C9 (Homo sapiens, UniProt P11712)
Cytochrome P450 3A4 = Cytochrome P450 3A4 (Homo sapiens, UniProt P08684);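 also: CYP3A4 tested as one member of a cytochrome P450 panel screen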
Protein Tat = molecular target: T4, Protein Tat (Human immunodeficiency virus type 1 group M subtype B (isolate HXB2)(HIV-1), UniProt P04608); type: functional;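 also: tat binding to TAR RNA read out by fluorescence polarization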
T4 sequence (P04608 whole entry): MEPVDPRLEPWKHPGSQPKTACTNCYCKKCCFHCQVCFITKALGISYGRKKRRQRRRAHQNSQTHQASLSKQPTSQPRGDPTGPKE

[15] = viability loss in THP-1 monocytes – THP-1 cells, cytotoxicity control for Vif-APOBEC3G degradation inhibitor project, dose response (AID 1117359); type: functional; settings: THP-1
Kallikrein-7 = Kallikrein-7 (Homo sapiens, UniProt P49862); assay: Fluorescence Intensity-based biochemical primary high throughput dose response assay to identify activators of kallikrein-7 (K7) zymogen.
[16] = molecular target: T5, Calpain-2 catalytic subunit (Sus scrofa, UniProt P43367); assay: m-calpain protease blockers, concentration series – biochemical, fluorogenic peptide substrate, dose response (AID 1420); type: functional
T5 sequence (P43367 whole entry): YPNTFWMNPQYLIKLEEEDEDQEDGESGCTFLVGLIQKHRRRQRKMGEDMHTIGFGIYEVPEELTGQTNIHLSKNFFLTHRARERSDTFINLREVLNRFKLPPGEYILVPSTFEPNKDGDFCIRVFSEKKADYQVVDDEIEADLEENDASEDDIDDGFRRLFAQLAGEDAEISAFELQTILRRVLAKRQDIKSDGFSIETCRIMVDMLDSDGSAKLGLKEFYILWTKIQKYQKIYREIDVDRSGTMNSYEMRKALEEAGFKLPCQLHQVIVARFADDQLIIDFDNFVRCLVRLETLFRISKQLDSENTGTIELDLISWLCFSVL

[17] = blockers of bursicon-stimulated LGR2 cAMP reporter – cell-based, HEK293, CRE-luciferase reporter, cherry pick, set 2, dose response (AID 743343); type: functional;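 also: transfected cells were stimulated with diluted bursicon conditioned medium after compound addition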
[18] = blockade of melanocortin 4 receptor signaling – cell-based, plate reader, cherry pick, counter-screen for LGR2 antagonist project, dose response (AID 743444); type: functional;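 also: transfected HEK 293 cells stimulated with alpha-MSH peptide; potency of inhibitors of the alpha-MSH evoked signal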
Fatty acid synthase [19] = molecular target: T6, Fatty acid synthase (Homo sapiens, UniProt P49327); assay: inhibition of human FAS-TE enzyme activity – biochemical, endpoint fluorescence intensity, uHTS hits, dose response (AID 624327); type: functional;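 also: fluorescence from hydrolysis of an O-methyl fluorescein acyl ester substrate by the enzyme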
T6 sequence (P49327 whole entry): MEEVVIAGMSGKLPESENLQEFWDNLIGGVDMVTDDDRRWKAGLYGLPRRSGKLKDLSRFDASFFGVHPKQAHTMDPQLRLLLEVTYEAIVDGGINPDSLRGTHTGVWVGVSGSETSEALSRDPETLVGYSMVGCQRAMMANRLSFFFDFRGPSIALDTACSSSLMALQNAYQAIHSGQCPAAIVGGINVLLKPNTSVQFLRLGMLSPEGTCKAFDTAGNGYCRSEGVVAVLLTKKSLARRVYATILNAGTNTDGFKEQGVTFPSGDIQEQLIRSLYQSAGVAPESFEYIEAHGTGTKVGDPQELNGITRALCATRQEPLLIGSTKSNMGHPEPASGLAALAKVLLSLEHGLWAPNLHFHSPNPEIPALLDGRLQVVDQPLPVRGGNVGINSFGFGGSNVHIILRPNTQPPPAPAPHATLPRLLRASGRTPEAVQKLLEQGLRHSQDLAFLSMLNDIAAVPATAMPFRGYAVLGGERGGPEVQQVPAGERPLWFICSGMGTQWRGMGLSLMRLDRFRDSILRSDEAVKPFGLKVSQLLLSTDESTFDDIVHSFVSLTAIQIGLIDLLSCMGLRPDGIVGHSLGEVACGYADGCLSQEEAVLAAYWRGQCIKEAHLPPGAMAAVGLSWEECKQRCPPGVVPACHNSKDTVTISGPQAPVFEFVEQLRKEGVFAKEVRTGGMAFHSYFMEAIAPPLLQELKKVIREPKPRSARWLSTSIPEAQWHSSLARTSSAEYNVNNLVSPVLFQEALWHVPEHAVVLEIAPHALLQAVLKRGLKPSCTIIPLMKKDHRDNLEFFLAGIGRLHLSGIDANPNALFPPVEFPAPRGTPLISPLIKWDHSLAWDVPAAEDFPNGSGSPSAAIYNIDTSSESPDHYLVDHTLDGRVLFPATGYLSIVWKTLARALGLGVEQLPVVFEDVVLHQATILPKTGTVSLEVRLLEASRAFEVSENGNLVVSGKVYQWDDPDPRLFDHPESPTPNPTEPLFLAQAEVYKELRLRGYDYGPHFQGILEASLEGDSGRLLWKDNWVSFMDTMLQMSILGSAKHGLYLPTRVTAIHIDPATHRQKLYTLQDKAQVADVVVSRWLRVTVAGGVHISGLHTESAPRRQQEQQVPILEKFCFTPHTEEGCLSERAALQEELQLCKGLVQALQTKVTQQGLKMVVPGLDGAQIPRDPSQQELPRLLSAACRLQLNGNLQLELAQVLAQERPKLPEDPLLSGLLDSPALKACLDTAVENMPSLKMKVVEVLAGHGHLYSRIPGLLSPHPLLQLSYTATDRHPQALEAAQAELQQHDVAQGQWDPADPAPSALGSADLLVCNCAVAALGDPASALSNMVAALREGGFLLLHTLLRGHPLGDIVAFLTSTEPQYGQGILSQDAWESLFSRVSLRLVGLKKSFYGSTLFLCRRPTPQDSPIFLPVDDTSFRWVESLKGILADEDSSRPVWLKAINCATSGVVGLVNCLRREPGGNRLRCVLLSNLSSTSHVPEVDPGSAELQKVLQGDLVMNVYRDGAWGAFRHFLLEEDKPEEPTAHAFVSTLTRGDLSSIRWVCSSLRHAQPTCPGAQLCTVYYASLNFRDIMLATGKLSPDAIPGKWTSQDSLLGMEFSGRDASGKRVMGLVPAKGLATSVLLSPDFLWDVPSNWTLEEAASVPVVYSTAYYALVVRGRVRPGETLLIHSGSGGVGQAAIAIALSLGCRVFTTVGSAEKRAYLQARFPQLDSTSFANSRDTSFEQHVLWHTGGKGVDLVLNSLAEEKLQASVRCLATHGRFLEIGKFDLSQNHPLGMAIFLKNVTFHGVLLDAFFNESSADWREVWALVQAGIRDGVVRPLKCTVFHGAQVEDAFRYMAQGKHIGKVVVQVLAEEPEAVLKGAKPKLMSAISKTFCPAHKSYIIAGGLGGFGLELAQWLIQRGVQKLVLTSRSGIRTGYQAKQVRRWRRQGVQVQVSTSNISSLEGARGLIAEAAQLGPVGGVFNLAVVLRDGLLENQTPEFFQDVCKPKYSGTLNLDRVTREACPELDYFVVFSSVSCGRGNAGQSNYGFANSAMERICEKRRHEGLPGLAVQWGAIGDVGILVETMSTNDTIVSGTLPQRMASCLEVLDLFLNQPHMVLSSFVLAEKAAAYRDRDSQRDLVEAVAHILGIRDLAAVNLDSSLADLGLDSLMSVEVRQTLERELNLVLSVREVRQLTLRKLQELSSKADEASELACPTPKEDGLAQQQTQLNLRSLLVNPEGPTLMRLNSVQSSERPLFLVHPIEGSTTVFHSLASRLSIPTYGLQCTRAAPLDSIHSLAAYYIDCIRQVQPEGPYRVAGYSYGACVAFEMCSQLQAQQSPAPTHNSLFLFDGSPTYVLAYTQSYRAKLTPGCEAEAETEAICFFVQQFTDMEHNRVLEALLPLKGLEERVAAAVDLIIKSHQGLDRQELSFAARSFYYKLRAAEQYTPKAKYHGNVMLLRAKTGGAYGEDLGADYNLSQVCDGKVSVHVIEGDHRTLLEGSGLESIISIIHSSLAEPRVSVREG

Fatty acid synthase [20] = molecular target: T6, Fatty acid synthase; assay: inhibition of human FAS-TE enzyme activity – biochemical, kinetic fluorescence intensity, dose response (AID 624326); type: functional;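 also: rate of fluorescence rise from hydrolysis of a fluorogenic O-methyl fluorescein ester substrate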
[21] = toxicity toward HepG2 liver cells – cell-based, plate reader, cherry-pick, antagonist series, cytotoxicity control, dose response (AID 743416); type: functional
Ion channel NompC = Ion channel NompC (Danio rerio, UniProt Q7T1G6); assay: Fluorescence counterscreen assay for TRPML3 agonists: dose response cell-based high-throughput screening assay to identify agonists of the transient receptor potential channel N1 (TRPN1). [Related pubchem assays: 1526, 1424, 1448 ]; type: functional
Mucolipin-3 = molecular target: T7, Mucolipin-3 (Homo sapiens, UniProt Q8TDD5); assay: Dose response cell-based high-throughput screening assay for agonists of the transient receptor potential channel ML3 (TRPML3). [Related pubchem assays: 1526, 1424, 1448 ]; type: functional
T7 sequence (Q8TDD5 whole entry): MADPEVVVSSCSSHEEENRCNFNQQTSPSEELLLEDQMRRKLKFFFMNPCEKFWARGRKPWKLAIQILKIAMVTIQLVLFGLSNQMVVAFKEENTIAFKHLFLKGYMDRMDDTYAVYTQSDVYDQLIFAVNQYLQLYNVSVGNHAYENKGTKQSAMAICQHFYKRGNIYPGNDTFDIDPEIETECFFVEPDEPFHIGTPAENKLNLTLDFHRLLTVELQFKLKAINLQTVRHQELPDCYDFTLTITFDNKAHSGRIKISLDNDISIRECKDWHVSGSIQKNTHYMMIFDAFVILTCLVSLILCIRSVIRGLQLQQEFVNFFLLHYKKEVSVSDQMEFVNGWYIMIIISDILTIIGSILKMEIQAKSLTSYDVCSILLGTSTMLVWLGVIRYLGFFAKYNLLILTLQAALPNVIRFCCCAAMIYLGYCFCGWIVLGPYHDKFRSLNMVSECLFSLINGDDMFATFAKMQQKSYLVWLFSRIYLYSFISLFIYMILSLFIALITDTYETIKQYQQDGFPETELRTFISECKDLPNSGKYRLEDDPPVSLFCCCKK

Sequence of Mu-type opioid receptor (P35372 whole entry): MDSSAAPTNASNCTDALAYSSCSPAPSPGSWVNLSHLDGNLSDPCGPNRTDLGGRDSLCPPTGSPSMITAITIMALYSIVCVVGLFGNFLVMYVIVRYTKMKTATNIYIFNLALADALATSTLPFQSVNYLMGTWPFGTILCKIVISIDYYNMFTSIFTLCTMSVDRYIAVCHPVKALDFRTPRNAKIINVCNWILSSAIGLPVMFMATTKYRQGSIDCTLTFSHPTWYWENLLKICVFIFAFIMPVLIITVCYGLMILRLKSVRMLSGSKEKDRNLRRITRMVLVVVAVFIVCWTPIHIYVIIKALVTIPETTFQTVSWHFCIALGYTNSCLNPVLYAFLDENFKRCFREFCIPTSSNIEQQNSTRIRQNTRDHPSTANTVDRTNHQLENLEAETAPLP
Sequence of Protein-tyrosine kinase 2-beta (Q14289 whole entry): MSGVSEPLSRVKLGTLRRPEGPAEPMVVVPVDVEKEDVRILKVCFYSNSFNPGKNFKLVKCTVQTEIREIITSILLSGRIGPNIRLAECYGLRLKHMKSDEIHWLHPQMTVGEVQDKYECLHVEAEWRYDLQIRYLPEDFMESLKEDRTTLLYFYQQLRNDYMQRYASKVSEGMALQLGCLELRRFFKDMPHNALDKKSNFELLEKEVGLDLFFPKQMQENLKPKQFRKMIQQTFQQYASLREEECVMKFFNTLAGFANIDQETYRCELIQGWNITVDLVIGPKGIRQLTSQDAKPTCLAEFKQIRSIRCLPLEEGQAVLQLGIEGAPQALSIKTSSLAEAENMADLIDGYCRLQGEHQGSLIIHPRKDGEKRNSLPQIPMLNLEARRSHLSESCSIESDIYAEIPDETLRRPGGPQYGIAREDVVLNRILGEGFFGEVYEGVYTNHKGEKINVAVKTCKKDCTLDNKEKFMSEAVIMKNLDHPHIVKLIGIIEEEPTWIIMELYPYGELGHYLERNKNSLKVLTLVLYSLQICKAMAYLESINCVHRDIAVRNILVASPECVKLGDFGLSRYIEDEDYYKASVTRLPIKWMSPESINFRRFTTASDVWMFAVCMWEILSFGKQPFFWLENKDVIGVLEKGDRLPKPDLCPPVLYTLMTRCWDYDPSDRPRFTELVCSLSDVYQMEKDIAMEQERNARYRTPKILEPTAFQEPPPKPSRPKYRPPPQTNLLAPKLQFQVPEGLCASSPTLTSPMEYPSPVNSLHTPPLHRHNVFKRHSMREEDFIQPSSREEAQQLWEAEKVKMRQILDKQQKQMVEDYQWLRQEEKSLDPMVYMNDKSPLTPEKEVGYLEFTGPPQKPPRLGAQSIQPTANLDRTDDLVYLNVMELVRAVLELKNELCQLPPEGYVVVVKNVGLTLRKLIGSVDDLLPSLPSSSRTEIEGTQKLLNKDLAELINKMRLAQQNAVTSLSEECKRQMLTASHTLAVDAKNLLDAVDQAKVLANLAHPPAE

Structure (SMILES): O=C(Oc1ccccc1Cl)c1ccccc1P(=O)(O)O
- IC50 [1]: 4.49 µM (active)

Structure (SMILES): CC(=O)c1ccc(OCC(O)CN2CCN(c3ccccn3)CC2)cc1 (stereo not drawn)
- EC50 (Mu-type opioid receptor): 92.4 µM (inactive)
- EC50 [2]: 0.865 µM (active)

Structure (SMILES): O=C(NC1CCCCC1)C(=S)NCCc1ccccc1
- EC50 (cells [3]): > 29.9 µM (inactive)
- EC50 [4]: 2.41 µM (active)
- IC50 (cells [5]): > 29.9 µM (inactive)
- IC50 [6]: 5.49 µM (active)

Structure (SMILES): O=C(NCc1ccco1)c1cc2n(n1)C(C(F)(F)F)CC(c1ccc(Br)cc1)N2 (stereo not drawn)
- IC50 [7]: > 50 µM (not active)

Structure (SMILES): COc1ccccc1C#Cc1ccc([C@@H]2[C@@H](CO)N3CCCCN(C(=O)C4CCC4)C[C@H]23)cc1
- AC50 [8]: 8.41 µM (active)

Structure (SMILES): CCOc1ccc(N(CC(=O)NCCSCc2ccc(Cl)cc2)S(C)(=O)=O)cc1
- AC50 [9]: 9.3 µM (active)
- AC50 [10]: 9.39 µM (active)
- AC50 [11]: 5.62 µM (active)
- AC50 [12]: 5.88 µM (active)

Structure (SMILES): OC(COCc1cccs1)CN1CCN(c2ccccn2)CC1 (stereo not drawn)
- EC50 (Mu-type opioid receptor): 92.5 µM (inactive)
- EC50 [2]: 0.637 µM (active)

Structure (SMILES): Cc1ccc(C)c(C(=O)C2=C(O)C(=O)N(CCN3CCOCC3)C2c2ccco2)c1 (stereo not drawn)
- AC50 (Cytochrome P450 2C19): inconclusive
- IC50 (Estrogen receptor beta [13]): 32.1 µM (not active)
- IC50 (Estrogen receptor beta [14]): 18.4 µM (active)
- AC50 (Cytochrome P450 2C9): 0.1 µM (inconclusive)
- AC50 (Cytochrome P450 3A4): 39.8 µM (inconclusive)

Structure (SMILES): COc1ccc(NC(=O)N(C)C[C@H]2Oc3c(NC(=O)CCCCCC(=O)Nc4ccccc4N)cccc3C(=O)N([C@H](C)CO)C[C@H]2C)cc1
- AC50 [8]: 0.304 µM (active)

Structure (SMILES): O=C(O)/C=C/C(=O)NCCc1ccc(Cl)cc1
- EC50 (cells [3]): > 29.9 µM (inactive)
- EC50 [4]: 51.7 µM (inactive)
- IC50 (cells [5]): > 29.9 µM (inactive)
- IC50 [6]: > 29.9 µM (inactive)

Structure (SMILES): CCC(/C=C(\O)c1ccncc1)=N\c1ccc(O)cc1
- IC50 (Protein Tat): 18.3 µM (inconclusive)
- CC50 [15]: > 40 µM (active)

Structure (SMILES): Cc1ccn2c(=O)c(C(=O)NCCC3=CCCCC3)c(O)nc2c1
- EC50 (cells [3]): > 29.9 µM (inactive)
- EC50 [4]: 3.44 µM (active)
- IC50 (cells [5]): > 29.9 µM (inactive)
- IC50 [6]: > 29.9 µM (inactive)

Structure (SMILES): Cc1cccc2cc(C(c3nnnn3C(C)(C)C)N3CCN(C(=O)c4ccco4)CC3)c(=O)[nH]c12 (stereo not drawn)
- IC50 [7]: 17.3 µM (active)

Structure (SMILES): CC1(C(=O)NCc2cccc3ccccc23)CCN1Cc1ccc(-c2ccccc2)o1 (stereo not drawn)
- AC50 [9]: 4.71 µM (active)
- AC50 [10]: 4.07 µM (active)
- AC50 [11]: 2.31 µM (active)
- AC50 [12]: 2.57 µM (active)

Structure (SMILES): CN(C)c1ccc(NC(=O)CSc2nc3ccccc3c(=O)n2C2CCCCC2)cc1
- IC50 (Protein Tat): 47.4 µM (inconclusive)
- CC50 [15]: > 40 µM (active)
- IC50 [7]: 30.2 µM (not active)

Structure (SMILES): Cc1ccc(/C=N/c2ccccc2C(N)=O)cc1
- EC50 (Kallikrein-7): > 69.5 µM (inactive)

Structure (SMILES): C[C@H](O)[C@@H]1C(=O)N2CCc3c([nH]c4ccccc34)[C@@H]2C[C@@H]1N(C)S(=O)(=O)c1ccccc1
- EC50 (Kallikrein-7): 7.44 µM (active)

Structure (SMILES): COc1cccc(CN2CC(=O)C(c3nc(-c4ccc(Cl)cc4)cs3)=C2N)c1
- IC50 [1]: 5.59 µM (active)

Structure (SMILES): Cc1ccc(CN2CCN(c3ccccn3)CC2)s1
- EC50 (Mu-type opioid receptor): 92.5 µM (inactive)
- EC50 [2]: 0.0593 µM (active)

Structure (SMILES): CCOc1ccc(NC2=NC(=O)S/C2=C\c2ccc(Cl)cc2)cc1
- IC50 [1]: 2.79 µM (active)
- IC50 [16]: > 50 µM (not active)

Structure (SMILES): O=Cc1cn(Cc2cccc([N+](=O)[O-])c2)c2ccccc12
- AC50 [17]: 1.28 µM (active)
- AC50 [18]: 0.801 µM (active)
- IC50 (Fatty acid synthase [19]): 12 µM (active)
- IC50 (Fatty acid synthase [20]): 10.9 µM (active)
- AC50 [21]: 0.625 µM (active)

Structure (SMILES): CC1(C)CCCC2=C1CC1C(=O)N(c3ccccc3)C(=O)C1C2 (stereo not drawn)
- EC50 (Ion channel NompC): > 29.9 µM (not active)
- EC50 (Mucolipin-3): > 29.9 µM (not active)

— ChEMBL document CHEMBL1201862, “PubChem BioAssay data set” (2004)
